Assays:
Assay in all cases: relative viability (nuclei count vs DMSO), 5 days (fraction); higher = more cells survive
KN-93 + Decitabine = compound: CN(C/C=C/C1=CC=C(C=C1)Cl)CC2=CC=CC=C2N(CCO)S(=O)(=O)C3=CC=C(C=C3)OC [KN-93] + Nc1ncn([C@H]2C[C@H](O)[C@@H](CO)O2)c(=O)n1 [Decitabine] (partner 2 µM)
In short: (§1)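 Lung cancer cell lines were seeded in 1536-well plates and dosed by pin tool the next day, with either a single drug or a fixed anchor-drug dose combined with five library-drug doses (not always all listed) spaced in √10 steps. Five days later, one step fixed the cells and stained their nuclei (final 0.05% Triton X-100, 1% formaldehyde, 1 ug/ml Hoechst), and nuclei were counted on 4× images. Relative viability is the nuclei count in treated wells divided by the count in vehicle wells, and each value is the median of duplicate plates.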

KN-93 + Olaparib = compound: CN(C/C=C/C1=CC=C(C=C1)Cl)CC2=CC=CC=C2N(CCO)S(=O)(=O)C3=CC=C(C=C3)OC [KN-93] + O=C(c1cc(Cc2n[nH]c(=O)c3ccccc23)ccc1F)N1CCN(C(=O)C2CC2)CC1 [Olaparib] (partner 8 µM)
In short: as §1

KN-93 + Vorinostat = compound: CN(C/C=C/C1=CC=C(C=C1)Cl)CC2=CC=CC=C2N(CCO)S(=O)(=O)C3=CC=C(C=C3)OC [KN-93] + O=C(CCCCCCC(=O)Nc1ccccc1)NO [Vorinostat] (partner 1 µM)
In short: as §1

KN-93 + Pemetrexed = compound: CN(C/C=C/C1=CC=C(C=C1)Cl)CC2=CC=CC=C2N(CCO)S(=O)(=O)C3=CC=C(C=C3)OC [KN-93] + Nc1nc2[nH]cc(CCc3ccc(C(=O)N[C@@H](CCC(=O)O)C(=O)O)cc3)c2c(=O)[nH]1 [Pemetrexed] (partner 0.2 µM)
In short: as §1

KN-93 + Alpelisib = compound: CN(C/C=C/C1=CC=C(C=C1)Cl)CC2=CC=CC=C2N(CCO)S(=O)(=O)C3=CC=C(C=C3)OC [KN-93] + Cc1nc(NC(=O)N2CCC[C@H]2C(N)=O)sc1-c1ccnc(C(C)(C)C(F)(F)F)c1 [Alpelisib] (partner 2 µM)
In short: as §1

Row | Cell Line | relative viability (KN-93 + Decitabine; first compound 0.08 µM) | relative viability (KN-93 + Decitabine; first compound 0.253 µM) | relative viability (KN-93 + Decitabine; first compound 2.53 µM) | relative viability (KN-93 + Decitabine; first compound 8 µM) | relative viability (KN-93 + Olaparib; first compound 0.08 µM) | relative viability (KN-93 + Olaparib; first compound 0.253 µM) | relative viability (KN-93 + Olaparib; first compound 2.53 µM) | relative viability (KN-93 + Olaparib; first compound 8 µM) | relative viability (KN-93 + Vorinostat; first compound 0.08 µM) | relative viability (KN-93 + Vorinostat; first compound 0.253 µM) | relative viability (KN-93 + Vorinostat; first compound 2.53 µM) | relative viability (KN-93 + Vorinostat; first compound 8 µM) | relative viability (KN-93 + Pemetrexed; first compound 0.08 µM) | relative viability (KN-93 + Pemetrexed; first compound 0.253 µM) | relative viability (KN-93 + Pemetrexed; first compound 2.53 µM) | relative viability (KN-93 + Pemetrexed; first compound 8 µM) | relative viability (KN-93 + Alpelisib; first compound 0.08 µM) | relative viability (KN-93 + Alpelisib; first compound 0.253 µM) | relative viability (KN-93 + Alpelisib; first compound 2.53 µM) | relative viability (KN-93 + Alpelisib; first compound 8 µM)
1 | PC-14 | 0.205 | 0.2 | 0.244 | 0.194 | 0.252 | 0.195 | 0.252 | 0.218 | 0.623 | 0.753 | 0.649 | 0.625 | 0.154 | 0.126 | 0.139 | 0.131 | 0.753 | 1.01 | 1.14 | 0.839
2 | NCI-H2087 | 0.28 | 0.235 | 0.273 | 0.155 | 0.453 | 0.606 | 0.653 | 0.383 | 0.707 | 0.963 | 0.861 | 0.54 | 0.694 | 0.672 | 0.564 | 0.607 | 0.879 | 1.21 | 0.933 | 0.532
3 | H3255 | 0.603 | 0.728 | 0.54 | 0.474 | 0.519 | 0.621 | 0.523 | 0.485 | 0.842 | 0.76 | 0.927 | 0.311 | 0.558 | 0.54 | 0.544 | 0.484 | 0.664 | 0.788 | 0.631 | 0.532
4 | NCI-H727 | 0.795 |  | 0.816 | 0.827 | 0.69 |  | 0.744 | 0.738 | 1.05 |  | 1.3 | 1.01 |  |  |  |  | 0.466 | 0.525 | 0.563 | 0.378
5 | NCI-H460 | 0.282 | 0.409 | 0.579 | 0.46 | 0.286 | 0.468 | 0.586 | 0.305 | 0.308 | 0.618 | 1.08 | 0.485 | 0.0661 | 0.0588 | 0.0591 | 0.0687 | 0.47 | 0.649 | 0.42 | 0.203
6 | NCI-H2228 |  |  |  |  | 0.617 | 0.611 | 0.8 | 0.269 | 0.588 | 0.786 | 0.655 | 0.346 | 0.407 | 0.383 | 0.353 | 0.252 | 0.704 | 0.553 | 0.722 | 0.236
7 | NCI-H647 | 0.373 | 0.487 | 0.444 | 0.409 | 0.648 | 0.766 | 0.881 | 0.421 | 0.532 | 0.853 | 0.601 | 0.323 | 0.176 | 0.181 | 0.159 | 0.174 | 1.39 | 1.52 | 1.32 | 0.717
8 | NCI-H2170 | 0.468 | 0.501 | 0.49 | 0.436 | 0.531 | 0.679 | 0.679 | 0.419 | 0.717 | 0.907 | 0.932 | 0.522 | 0.268 | 0.302 | 0.276 | 0.252 | 0.782 | 0.876 | 0.928 | 0.65
9 | LCLC-97TM1 | 0.288 | 0.208 | 0.279 | 0.211 | 0.308 | 0.368 | 0.449 | 0.242 | 0.629 | 0.723 | 0.637 | 0.437 | 0.199 | 0.165 | 0.179 | 0.145 | 0.282 |  | 0.217 | 0.206
10 | SK-MES-1 | 0.389 | 0.357 | 0.371 | 0.355 | 0.648 | 0.665 | 0.935 | 0.333 | 1.11 | 1.12 | 1.14 | 0.924 | 1.03 | 0.945 | 1.05 | 0.806 | 0.737 | 0.977 | 0.864 | 0.862
11 | NCI-H358 | 0.212 | 0.207 | 0.198 | 0.184 | 0.678 | 0.638 | 0.608 | 0.502 | 0.659 | 0.79 | 0.824 | 0.459 | 0.166 | 0.182 | 0.169 | 0.157 | 0.843 | 0.992 | 0.72 | 0.319
12 | A-427 | 0.579 | 0.511 | 0.546 | 0.496 | 0.783 | 0.559 | 0.765 | 0.51 | 0.856 | 0.862 | 0.868 | 0.59 | 1.05 | 1.01 | 0.941 | 0.776 | 1.07 | 1.18 | 1.08 | 0.975
13 | NCI-H1734 | 0.465 | 0.596 | 0.502 | 0.442 | 0.496 | 0.677 | 0.611 | 0.518 | 0.808 | 0.837 | 0.944 | 0.576 | 0.457 | 0.478 | 0.399 | 0.417 | 0.718 | 0.712 | 0.746 | 0.533
14 | LXF-289 | 0.391 | 0.413 | 0.416 | 0.388 | 0.903 | 1.18 | 1.25 | 0.955 | 0.661 | 0.839 | 0.716 | 0.546 | 0.925 | 0.926 | 0.977 | 0.684 | 0.974 | 1.11 | 1.11 | 0.705
15 | NCI-H1437 | 0.519 | 0.768 | 0.533 | 0.405 | 0.626 | 0.683 | 0.564 | 0.456 | 0.608 | 0.854 | 0.529 | 0.324 | 0.317 | 0.312 | 0.247 | 0.19 | 0.876 | 1.25 | 0.88 | 0.613
16 | ABC-1 | 1.37 | 1 | 1.17 | 0.411 | 0.785 | 0.687 | 0.978 | 0.339 | 0.92 | 1.66 | 0.586 | 0.427 |  |  |  |  | 0.893 | 1.27 | 1.13 | 0.715
17 | NCI-H1703 |  |  |  |  | 0.432 |  | 0.372 | 0.181 |  |  |  |  |  |  |  |  | 0.298 | 0.319 | 0.304 | 0.227

From the supplement of paper PMC10307832
